Assay results reported in patent publication US8247556B2, “Method for preparing 6-substituted-7-aza-indoles” (Amgen Inc., priority 2005, dated 2012).

System: VEGF-stimulated HUVEC proliferation (Human Umbilical Vein Endothelial cells)
Assay: HUVEC Proliferation Assay
Assay type: cell-based
Conditions: VEGF 50 ng/mL, 72 h, CyQuant fluorescent dye, read-out: inhibited VEGF-stimulated HUVEC proliferation at a level
Experimental: Human Umbilical Vein Endothelial cells are purchased from Clonetics, Inc., as cryopreserved cells harvested from a pool of donors. These cells, at passage 1, are thawed and expanded in EBM-2 complete medium, until passage 2 or 3. The cells are trypsinized, washed in DMEM+10% FBS+antibiotics, and spun at 1000 rpm for 10 min. Prior to centrifugation of the cells, a small amount is collected for a cell count. After centrifugation, the medium is discarded, and the cells are resuspended in the appropriate volume of DMEM+10% FBS+antibiotics to achieve a concentration of 3×10^5 cells/mL. Another cell count is performed to confirm the cell concentration. The cells are diluted to 3×10^4 cells/mL in DMEM+10% FBS+antibiotics, and 100 μL of cells are added to a 96-well plate. The cells are incubated at 37° C. for 22 h.
Prior to the completion of the incubation period, compound dilutions are prepared. Five-point, five-fold serial dilutions are prepared in DMSO, at concentrations 400-fold greater than the final concentrations desired. 2.5 μL of each compound dilution are diluted further in a total of 1 mL DMEM+10% FBS+antibiotics (400× dilution). Medium containing 0.25% DMSO is also prepared for the 0 μM compound sample. At the 22 h time point, the medium is removed from the cells, and 100 μL of each compound dilution is added. The cells are incubated at 37° C. for 2-3 h.
During the compound pre-incubation period, the growth factors are diluted to the appropriate concentrations. Solutions of DMEM+10% FBS+antibiotics, containing either VEGF or bFGF at the following concentrations: 50, 10, 2, 0.4, 0.08, and 0 ng/mL are prepared. For the compound-treated cells, solutions of VEGF at 550 ng/mL or bFGF at 220 ng/mL for 50 ng/mL or 20 ng/mL final concentrations, respectively, are prepared since 10 μL of each will be added to the cells (110 μL final volume). At the appropriate time after adding the compounds, the growth factors are added. VEGF is added to one set of plates, while bFGF is added to another set of plates. For the growth factor control curves, the media on wells B4-G6 of plates 1 and 2 are replaced with media containing VEGF or bFGF at the varying concentrations (50-0 ng/mL). The cells are incubated at 37° C. for an additional 72 h.
At the completion of the 72 h incubation period, the medium is removed, and the cells are washed twice with PBS. After the second wash with PBS, the plates are tapped gently to remove excess PBS, and the cells are placed at −70° C. for at least 30 min. The cells are thawed and analyzed using the CyQuant fluorescent dye (Molecular Probes C-7026), following the manufacturer's recommendations. The plates are read on a Victor/Wallac 1420 workstation at 485 nm/530 nm (excitation/emission). Raw data are collected and analyzed using a 4-parameter fit equation in XLFit. IC50 values are then determined.

Row | Compound | IC50
1 | O=C(Nc1ccc2c(c1)NCC21CC1)c1cccnc1NCc1ccnc2[nH]ccc12 [Example 8] | < 0.5 µM
2 | CC1(C)CNCc2cc(NC(=O)c3cccnc3NCc3ccnc4[nH]ccc34)cnc21 [Example 11] | < 0.5 µM
3 | O=C(Nc1ccc(C(O)(C(F)(F)F)C(F)(F)F)cc1)c1cccnc1NCc1ccnc2[nH]ccc12 [Example 17, 2-[(1H-Pyrrolo[2,3-b]pyridin-4-ylmethyl)amino]-N-{4-[2,2,2-trifluoro-1-hydroxy-1-(trifluoromethyl)ethyl]phenyl}nicotinamide] | < 0.5 µM
4 | O=C(Nc1cccc(C(OC[C@@H]2CCCN2)(C(F)(F)F)C(F)(F)F)c1)c1cccnc1NCc1ccnc2[nH]ccc12 [Example 19, (S)-2-((1H-pyrrolo[2,3-b]pyridin-4-yl)methylamino)-N-(3-(1,1,1,3,3,3-hexafluoro-2-(pyrrolidin-2-ylmethoxy)propan-2-yl)phenyl)nicotinamide] | < 0.5 µM
5 | O=C(Nc1ccc(C(OC[C@@H]2CCCN2)(C(F)(F)F)C(F)(F)F)cc1)c1cccnc1NCc1ccnc2[nH]ccc12 [Example 20, (S)-2-((1H-pyrrolo[2,3-b]pyridin-4-yl)methylamino)-N-(4-(1,1,1,3,3,3-hexafluoro-2-(pyrrolidin-2-ylmethoxy)propan-2-yl)phenyl)nicotinamide] | < 0.5 µM
6 | CC1(C)CN(C(=O)[C@@H]2CCN2)c2cc(NC(=O)c3cccnc3NCc3ccnc4[nH]ccc34)ccc21 [Example 23, N-{1-[(2S)-Azetidin-2-ylcarbonyl]-3,3-dimethyl-2,3-dihydro-1H-indol-6-yl}-2-[(1H-pyrrolo[2,3-b]pyridin-4-ylmethyl)amino]nicotinamide] | < 0.5 µM
7 | CC1(C)CNCc2cc(NC(=O)c3cccnc3NCc3ccnc4c3CCN4)ccc21 [Example 25, 2-[(2,3-Dihydro-1H-pyrrolo[2,3-b]pyridin-4-ylmethyl)amino]-N-(4,4-dimethyl-1,2,3,4-tetrahydroisoquinolin-7-yl)nicotinamide] | < 0.5 µM
8 | CN1CCC[C@H]1COc1cc(NC(=O)c2cccnc2NCc2ccnc3[nH]ccc23)cc(C(F)(F)F)c1 [Example 35, N-[3-{[(2S)-1-methylpyrrolidin-2-yl]methoxy}-5-(trifluoromethyl)phenyl]-2-[(1H-pyrrolo[2,3-b]pyridin-4-ylmethyl)amino]nicotinamide] | < 0.5 µM
9 | Cc1nc2cc(NC(=O)c3ccc(F)nc3NCc3ccnc4[nH]ccc34)ccc2s1 [Example 37, 2-((1H-Pyrrolo[2,3-b]pyridin-4-yl)methylamino)-6-fluoro-N-(2-methylbenzo[d]thiazol-5-yl)nicotinamide] | < 0.5 µM
10 | COC(c1ccc(NC(=O)c2cccnc2NCc2ccnc3[nH]ccc23)cc1)(C(F)(F)F)C(F)(F)F [Example 44, 2-[(1H-Pyrrolo[2,3-b]pyridin-4-ylmethyl)-amino]-N-[4-(2,2,2-trifluoro-1-methoxy-1-trifluoromethyl-ethyl)-phenyl]-nicotinamide] | < 0.5 µM
11 | O=C(Nc1ccc(C(F)(F)C(F)(F)F)c(CN2CCNCC2)c1)c1cccnc1NCc1ccnc2[nH]ccc12 [Example 45, N-(4-Pentafluoroethyl-3-piperazin-1-ylmethyl-phenyl)-2-[(1H-pyrrolo[2,3-b]pyridin-4-ylmethyl)-amino]-nicotinamide] | < 0.5 µM
12 | CN1CCN(Cc2cc(NC(=O)c3cccnc3NCc3ccnc4[nH]ccc34)ccc2C(F)(F)C(F)(F)F)CC1 [Example 46, N-[3-(4-Methyl-piperazin-1-ylmethyl)-4-pentafluoroethyl-phenyl]-2-[(1H-pyrrolo[2,3-b]pyridin-4-ylmethyl)-amino]-nicotinamide] | < 0.5 µM
13 | O=C(Nc1cc(O[C@@H]2CCOC2)cc(C(F)(F)F)c1)c1cccnc1NCc1ccnc2[nH]ccc12 [Example 47, 2-[(1H-pyrrolo[2,3-b]pyridin-4-ylmethyl)amino]-N-[3-[(3R)-tetrahydrofuran-3-yloxy]-5-(trifluoromethyl)phenyl]nicotinamide] | < 0.5 µM
14 | O=C(Nc1ccc2ncccc2c1)c1cccnc1NCc1ccnc2[nH]ccc12 [Example 53, 2-[(1H-Pyrrolo[2,3-b]pyridin-4-ylmethyl)-amino]-N-quinolin-6-yl-nicotinamide] | < 0.5 µM
15 | O=C(Nc1ccc2ccncc2c1)c1cccnc1NCc1ccnc2[nH]ccc12 [Example 55, N-Isoquinolin-7-yl-2-[(1H-pyrrolo[2,3-b]pyridin-4-ylmethyl)-amino]-nicotinamide] | < 0.5 µM
16 | O=C(Nc1ccc(C(F)(F)F)c(OCC2CCCO2)c1)c1cccnc1NCc1ccnc2[nH]ccc12 (stereo not drawn) [Example 57, 2-[(1H-Pyrrolo[2,3-b]pyridin-4-ylmethyl)-amino]-N-[3-(tetrahydro-furan-2-ylmethoxy)-4-trifluoromethyl-phenyl]-nicotinamide] | < 0.5 µM
17 | CN1CCC(Cc2cc(NC(=O)c3cccnc3NCc3ccnc4[nH]ccc34)cc(C(F)(F)F)c2)CC1 [Example 58, N-[3-(1-Methyl-piperidin-4-ylmethyl)-5-trifluoromethyl-phenyl]-2-[(1H-pyrrolo[2,3-b]pyridin-4-ylmethyl)-amino]-nicotinamide] | < 0.5 µM
18 | O=C(Nc1cc(CCCN2CCOCC2)cc(C(F)(F)F)c1)c1cccnc1NCc1ccnc2[nH]ccc12 [Example 60, N-(3-(3-(4-morpholinyl)propyl)-5-(trifluoromethyl)phenyl)-2-((1H-pyrrolo[2,3-b]pyridin-4-ylmethyl)amino)-3-pyridinecarboxamide] | < 0.5 µM
19 | O=C(Nc1cc(CCCN2CCCCC2)cc(C(F)(F)F)c1)c1cccnc1NCc1ccnc2[nH]ccc12 [Example 62, N-[3-(3-Piperidin-1-yl-propyl)-5-trifluoromethyl-phenyl]-2-[(1H-pyrrolo[2,3-b]pyridin-4-ylmethyl)-amino]-nicotinamide] | < 0.5 µM
20 | O=C(Nc1ccc(C(F)(F)C(F)(F)F)c(OCCN2CCCC2)c1)c1cccnc1NCc1ccnc2[nH]ccc12 [Example 63, N-[4-pentafluoroethyl-3-(2-pyrrolidin-1-yl-ethoxy)-phenyl]-2-[(1H-pyrrolo[2,3-b]pyridin-4-ylmethyl)-amino]-nicotinamide] | < 0.5 µM
21 | CC1(C)CCNc2cc(NC(=O)c3cccnc3NCc3ccnc4[nH]ncc34)ccc21 [Example 71, N-(4,4-Dimethyl-1,2,3,4-tetrahydro-7-quinolinyl)-2-((1H-pyrazolo[3,4-b]pyridin-4-ylmethyl)amino)-3-pyridinecarboxamide] | < 0.5 µM
22 | CC1(C)CCNc2cc(NC(=O)c3cccnc3NCc3ccnc4c3CC(=O)N4)ccc21 [Example 73, N-(4,4-Dimethyl-1,2,3,4-tetrahydro-quinolin-7-yl)-2-[(2-oxo-2,3-dihydro-1H-pyrrolo[2,3-b]pyridin-4-ylmethyl)-amino]-nicotinamide] | < 0.5 µM
23 | Cc1nc2cc(NC(=O)c3cc(F)cnc3NCc3ccnc4[nH]ccc34)ccc2s1 [Example 77, 5-fluoro-N-(2-methyl-1,3-benzothiazol-5-yl)-2-((1H-pyrrolo[2,3-b]pyridin-4-ylmethyl)amino)-3-pyridinecarboxamide] | < 0.5 µM
24 | CC(C)(C)c1ccc(NC(=O)c2cc(Cl)cnc2NCc2ccnc3[nH]ccc23)cc1 [Example 88, 5-chloro-N-(4-(1,1-dimethylethyl)phenyl)-2-((1H-pyrrolo[2,3-b]pyridin-4-ylmethyl)amino)-3-pyridinecarboxamide] | < 0.5 µM
25 | O=C(Nc1ccc(Cl)c(C(F)(F)F)c1)c1cc(F)cnc1NCc1ccnc2[nH]ccc12 [Example 90, N-(4-chloro-3-(trifluoromethyl)phenyl)-5-fluoro-2-((1H-pyrrolo[2,3-b]pyridin-4-ylmethyl)amino)-3-pyridinecarboxamide] | < 0.5 µM
26 | O=C(Nc1ccc(Cl)cc1)c1cc(F)cnc1NCc1ccnc2[nH]ccc12 [Example 91, N-(4-chlorophenyl)-5-fluoro-2-((1H-pyrrolo[2,3-b]pyridin-4-ylmethyl)amino)-3-pyridinecarboxamide] | < 0.5 µM
27 | O=C(Nc1ccc(C(F)(F)F)c(Cl)c1)c1cc(F)cnc1NCc1ccnc2[nH]ccc12 [Example 100, N-(3-chloro-4-(trifluoromethyl)phenyl)-5-fluoro-2-((1H-pyrrolo[2,3-b]pyridin-4-ylmethyl)amino)-3-pyridinecarboxamide] | < 0.5 µM
